For orientation: EC10 means the concentration at which the effect reaches the 10% level. By EC50 is commonly meant the concentration needed to bring the measured effect to its halfway point. A high value points to lower potency in that assay. One may read the HC50 as the concentration that lyses half of the red blood cells. The low end stands for more damage to red cells, the high end for less damage to red cells.

Molecules are shown by their SMILES. Like-named read-outs stand apart in the source and are kept apart here. Where a SMILES comes first, the peptide text is derived from it. [ ]: non-standard residue; d: D form. The star is where a group is joined. Hyp = O=C(O)[C@@H]1C[C@@H](O)CN1; Lauroyl = CCCCCCCCCCCC(=O)*

One data set concerns primary fibroblast cells. Put plainly: In vitro wound healing (closure) assay with IBIDI culture inserts, fibroblast migration. It counts as cell-based, human. As for the experimental part:
In vitro wound healing (closure) assay using IBIDI culture inserts were performed according to literature. Briefly, cell suspension (1,5×10^4) was seeded in Culture-insert 2 well in 70µl of growth medium (DMEM) and cultured for 24 h (37°C, 5%CO2) to form a monolayer. After removal of the Culture-insert, the newly created cell-free gap (wound) was wahed with DMEM followed by PBS. Cell monolayer was also preincubated for 30 min in the presence of mitomycin C (8µg/mL), as a DNA replication and cell proliferation inhibitor. A fresh DMEM and the cells were treated with a pharmaceutical composition containing a lipopeptide conjugate or pharmaceutically acceptable salt and incubated for 24h (37°C, 5%CO2). The cultures in DMEM (K+) was incubated under the same conditions as described above. After overnight incubation, the media was removed, cells were rinsed with sterile PBS and then 1% paraformaldehyde (PFA) was added. After 20 minutes, the cells were washed with PBS and stained with 0.05% crystal violet solution. The stained cells were washed with PBS and then distilled water was added to each well. The wounded areas were visualized microscopically and photographed by microscope (Zeiss). Photographs from the process of human fibroblasts migration after treatment with a pharmaceutical composition containing a lipopeptide conjugate or a pharmaceutically acceptable salt thereof at a given concentration are shown in Figure 7. Cell migration was analyzed using Imaging Software NIS-Elements Basic Research. Alternatively, the migration rate was expressed as the percentage of area reduction (wound closure) compared to the control K. Data of at least independent experiments (n=3) were shown in Figure 4. […] However, lipopeptide conjugates at a concentration of 0.01µg/mL regulated independently both processes, including fibroblast proliferation and migration.
The wound area reduced by 10.3-20.7% as cell migration progresses in comparison to control. This effect was statistically significant. The migration of primary fibroblast cells was enhanced after 24 hours of lipopeptide conjugates treatment. […]

Data set [1] concerns primary fibroblast. The data set is classed as cell-based. The procedure:
(§1) The cytotoxicity of lipopeptide conjugates or their pharmaceutically acceptable salts was assessed in immortalized human cell lines, human primary fibroblast cells independently, separately using two assays, XTT and LDH. Approximately, 5×10^3 fibroblast human cell line BR1N, human primary fibroblast cells or HaCaT cells in 200 µl DMEM supplemented with 10% FCS per well were seeded in 96-well plate and incubated for 24 h (37°C, 5%CO2). Culture medium was replaced with fresh DMEM, and then the cells were exposed to lipopeptide conjugate or its pharmaceutically acceptable salt solutions administered in DMEM at the final concentration in the range from 1 µg mL^-1 to 1000 µg mL^-1. In the experiments, cells in DMEM medium treated with 0.9% solution of Triton X-100 were used as positive control (K+, 100% mortality), untreated cells in DMEM medium were assayed as a negative control (K-). After incubation, cytotoxicity was assessed by measuring the activity of the intracellular cytoplasmic enzyme - lactate dehydrogenase (LDH) and decrease in cell viability measured by a decrease in mitochondria metabolism activity to XTT reduction. The rapidly release of LDH enzyme into the cell culture supernatant is correlated with the plasma membrane damage and cell death. The LDH enzyme release was measured after removal of the supernatant, colorimetrically by incubation with reagent containing 2[4-iodophenyl]-3-[4-nitrophenyl]-5-phenyltetrazolium chloride. The absorbance measured at a wavelenght of 490nm using microplate reader Perkin Elmer spectrophotometer was proportional do LDH activity and the number of damaged cells. The XTT test was performed by adding the XTT solution to each test well. After incubation time at 37°C, the absorbance was measured at a wavelenght of 490nm. Average of absorbance measurements from 3 independent experiments was used to estimate the cell death. The mean absorbance from control wells was considered as 0% (negative control) and 100% (positive control) of cell mortality.

For another data set, the system named is human erythrocytes. The data set is classed as cell-based. As for the experimental part:
Hemolytic activity was determined by incubating 2% suspension of erythrocytes from healthy human blood (n=3)) with serial dilutions of each selected lipopeptide conjugates (at concentration range from 1000µg/mL to 10µg/mL). Fresh erythrocytes were collected by centrifugation for 10 min at 500xg, washed three times with PBS and diluted to a concentration of 2% in PBS. Erythrocytes were incubated with lipopeptide conjugate, but also with 1% Triton X-100 (positive control), in PBS (blank) at 37°C for 1 hour. After incubation, the plates were centrifuged at 500×g for 10 min, and the supernatants were transferred to new clean wells. Release of hemoglobin was measured as the absorbance of the supernatants at a wavelength of 540 nm using microplate reader (Victor PerkinElmer). The relative optical density compared to the suspension treated with 1% Triton X-100 was defined as the percentage of hemolysis. The results present HC10, HC50 defined as the lowest concentration of lipopeptide conjugate that induced 10% and 50% cell lysis, respectively. The novel lipopeptide conjuagtes have a lack of hemolytic activity at the wide range of concentrations in relation to their biological effect. These lipopeptide conjugates induced 10% of cell lysis at concentration range from 0.19 to 1.62 mM (Table 6). […]

For data set [2], the system named is human keratinocyte primary culture. Description: Keratinocyte proliferation in the wound closure setting. The data set is classed as cell-based. As to conditions: relative to non-stimulated DMEM (K), mean±SD.
For a further data set, the system named is BALB/c mice. Put plainly: In vivo full-thickness excision wound healing. Particulars: preparation 0.1% w/w daily d0÷d10 or 4.0% w/w at d0, d3, d7, d10; versus control. On the set-up: species or system Mus musculus BALB/c mice. As for the experimental part:
8-10 week-old female Mus musculus BALB/c mice (purchased from Tri-City Academic Laboratory Animal Centre-Research nad Services Centre) were used in the study. The experiments were carried out in Tri-City Academic Laboratory Animal Centre - Research and Services Centre according to the approved guidelines of Local Ethics Committee of Animal Experimentation in Bydgoszcz (permit No. 31/2018). Mice were housed under standard conditions, with ad libitum access to food pellets and tap water, and kept under control conditions (22±2°C, relative humidity 55±10%, 12/12 light/darck cycle).
In experiments, mice were divided into groups i.e. control groups (n=6) and experimental groups (n=6). The animals were anesthetized with 3÷5% isoflurane. […] The progress of the wound healing process was assessed according to the defined administration schedule at intervals (d0, d3, d7, d10, d14). […] Wound surfaces were each photographed with a Nikon Coolpix S5100 camera and calculated with the use of Image J. Wound healing (restoration of a full-layer skin) is interpreted as the percentage reduction of the original wound area over time. The process of reepithelization was also assessed, indicating the surface of new epithelium extending. […]

In data set [3] the test system is HaCaT. Put plainly: Cytotoxicity, LDH release assay. The data set is classed as cell-based, human. Particulars: 10% decrease in viability, tested 1÷1000 µg/mL. As for the experimental part: as §1
(In general: Release of lactate dehydrogenase indicates damage to the cell membrane.)

Data set [4] relates to HaCaT. Put plainly: Cytotoxicity, XTT viability assay (MTT in Table 5). The data set is classed as cell-based, human. As to conditions: MTT (so in the source), 10% decrease in viability, tested 1÷1000 µg/mL. As for the experimental part:
as §1
Background: Formazan colour is commonly taken as a measure of viable cells.

The subject of data set [5] is BR1N. Put plainly: Cytotoxicity, XTT viability assay (MTT in Table 5). The data set is classed as cell-based, human. As to conditions: MTT (so in the source), 10% decrease in viability, tested 1÷1000 µg/mL. As for the experimental part: as §1
Data set [6] relates to primary fibroblast. Description: Cytotoxicity, XTT viability assay (MTT in Table 5). Particulars: MTT (so in the source), tested 1÷1000 µg/mL; for EC10: 10% decrease in viability. The data set is classed as cell-based, human. As for the experimental part: as §1
Data set [7] has as its system BR1N. Put plainly: Cytotoxicity, LDH release assay. It counts as cell-based, human. As to conditions: 10% decrease in viability, tested 1÷1000 µg/mL. As for the experimental part:
as §1

For `CCCCCCCCCCCC(=O)NCC(=O)N1CCC[C@H]1C(=O)N1C[C@H](O)C[C@H]1C(=O)N[C@@H](CCCCN)C(N)=O` [Lipopeptide conjugate 3, N^α-lauroyl-Gly-Pro-Hyp-Lys-NH2] (Lauroyl-GP[Hyp]K-NH2), the “concentration that facilitates primary human fibroblast cell migration” value with primary fibroblast cells (24 h treatment) is < 0.1 µg/mL. Moreover, the “reduction of the wound surface” value in the data set on primary fibroblast cells (aqueous solution, 0.01 µg/mL, compared to the control, primary human fibroblast cells) worked out at 18.29%. Moreover, the EC10 with primary fibroblast [1] was 420.6 ± 42.1 µM; in the data set with HaCaT [3], 171.4 ± 78.3 µM; in the data set with HaCaT [4], 210.2 ± 110.4 µM; with BR1N [5], >504.7 µM; in the data set on primary fibroblast [6], 399.7 ± 35.8 µM. In addition, the HC10 in the data set with human erythrocytes was found to be 1.6169 mM; in the data set on human erythrocytes (red cells of human, 1 h) it was 961.1 µg/mL. Also, the “Keratinocyte proliferation [n-times of control]” value in data set [2] (0.01 µg/mL) was 1.29±0.17 n-times of control; in data set [2] (0.10 µg/mL) it was 1.34±0.11 n-times of control. For the same molecule, the “Differences in wound size and coverage of the wound with a new epithelial layer” value in the data set with BALB/c mice is given as “visible from Day 3”. The same molecule registered an EC50 with primary fibroblast [6] (50% decrease in viability) of 685 ± 138 µM.

Regarding `CCCCCCCCCCCC(=O)NCC(=O)N1C[C@H](O)C[C@H]1C(=O)N1C[C@H](O)C[C@H]1C(=O)N[C@@H](CCCCN)C(N)=O` [Lipopeptide conjugate 2, N^α-lauroyl-Gly-Hyp-Hyp-Lys-NH2] (Lauroyl-G[Hyp][Hyp]K-NH2), the EC10 amounted to 409.6 ± 66.9 µM in the data set on primary fibroblast [1]; 346.9 ± 35.0 µM with HaCaT [3]; 432.8 ± 34.5 µM with BR1N [7]; 327.6 ± 40.9 µM in the data set with BR1N [5]; 431.2 ± 34.7 µM in the data set on primary fibroblast [6]. The HC10 with human erythrocytes came to 0.1858 mM; with human erythrocytes (red cells of human, 1 h), 113.4 µg/mL.

`CCCCCCCCCCCC(=O)NCC(=O)N1CCC[C@H]1C(=O)N[C@@H](CCCCN)C(N)=O` [Lipopeptide conjugate 1] (Lauroyl-Gly-Pro-Lys-NH2): the “Percentage wound area reduction observed at” value in the data set with primary fibroblast cells (primary fibroblast cells, tested at 0.01 and 0.10 µg/mL) is reported as 10-fold increased concentrations. Besides, the 10% effect concentration (EC10) in the data set with primary fibroblast [1] was 890.9±171. 9 µM; with HaCaT [3], 537.1 ± 45.3 µM; in the data set on HaCaT [4], 254.1 ± 85.5 µM. In addition, the HC10 turned out to be 0.2962 mM with human erythrocytes and 142.5 µg/mL in the data set with human erythrocytes (red cells of human, 1 h). Also, the HC50 with human erythrocytes is reported as > 1.0387 mM; in the data set with human erythrocytes (red cells of human, 1 h), > 500 µg/mL. Moreover, the “Keratinocyte proliferation [n-times of control]” value in data set [2] (0.01 µg/mL) and in data set [2] (0.10 µg/mL) was 1.08±0.04 n-times of control in each case. In addition, the “Differences in wound size and coverage of the wound with a new epithelial layer” value in the data set on BALB/c mice was “visible from Day 3”.

The record behind these values is patent EP3925626A1, “LIPOPEPTIDE CONJUGATES AND THEIR SALTS, METHOD OF MANUFACTURE OF LIPOPEPTIDE CONJUGATES AND THEIR SALTS, PHARMACEUTICAL COMPOSITION COMPRISING A LIPOPEPTIDE CONJUGATE AND ITS SALTS FOR THE TREATMENT OF CHRONIC WOUNDS” (priority 2020, dated 2021).
